Measured values as given in BindingDB's records for doi:10.7270/Q2930RSV (Burnham Center For Chemical Genomics, 2012).

Target: T1, Caspase-3 (Homo sapiens, UniProt P42574)
T1 sequence (P42574 whole entry): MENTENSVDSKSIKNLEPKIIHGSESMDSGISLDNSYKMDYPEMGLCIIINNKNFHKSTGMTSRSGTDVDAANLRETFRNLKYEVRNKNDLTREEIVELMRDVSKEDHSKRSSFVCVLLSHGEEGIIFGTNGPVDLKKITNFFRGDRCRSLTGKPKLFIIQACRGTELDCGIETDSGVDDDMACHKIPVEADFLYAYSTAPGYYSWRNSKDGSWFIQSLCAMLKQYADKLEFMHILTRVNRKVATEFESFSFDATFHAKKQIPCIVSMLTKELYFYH

SMILES | IC50
CCCCOc1cc(NCc2ccccc2)c2ncn(C(C)C)c2c1 | > 100 µM
CC1(C)Cc2c(nn(-c3ccccc3)c(=N)c2C#N)CO1 | 1.09 µM
CC(C)(C)c1ccc(C(=O)NNc2cc(N3CCCCC3)nc(N3CCCCC3)n2)cc1 | > 100 µM
NS(=O)(=O)c1ccc(CCNC(=O)COC(=O)c2ccc([N+](=O)[O-])o2)cc1 | > 100 µM
CCC(=O)c1ccc(OCc2cn(CC(=O)c3ccc(O)cc3)nn2)cc1 [1-[4-[[1-[2-(4-hydroxyphenyl)-2-oxoethyl]triazol-4-yl]methoxy]phenyl]propan-1-one] | > 100 µM
CCN(CC)c1ccc(NC2CC(=O)N(CCc3ccc(OC)cc3)C2=O)cc1 (stereo not drawn) [3-[4-(diethylamino)anilino]-1-[2-(4-methoxyphenyl)ethyl]pyrrolidine-2,5-dione] | > 100 µM
COC(=O)c1ccc(C)cc1C1CN=NC12Cc1cc(C)ccc1C2=O (stereo not drawn) [4-methyl-2-(6-methyl-3-oxo-4'-spiro[1H-indene-2,5'-3,4-dihydropyrazole]yl)benzoic acid methyl ester] | > 100 µM
O=[N+]([O-])c1ccc(-n2[n-]c(=[N+]3CCOCC3)cc2O)cc1 [5-(4-morpholinyl)-2-(4-nitrophenyl)-4H-pyrazol-3-one] | > 100 µM
Cc1[nH]n(-c2ccccc2)c(=O)c1S(=O)(=O)c1ccccc1 [5-methyl-2-phenyl-4-(phenylsulfonyl)-1H-pyrazol-3-one] | > 100 µM
O=C(NNc1cc(N2CCCC2)nc(N2CCCC2)n1)c1ccc([N+](=O)[O-])cc1 [N'-(2,6-dipyrrolidin-1-ylpyrimidin-4-yl)-4-nitrobenzohydrazide] | > 100 µM
O=C(CCc1ccccc1)NNc1cc(N2CCCCC2)nc(N2CCCCC2)n1 [N'-[2,6-di(piperidin-1-yl)pyrimidin-4-yl]-3-phenylpropanehydrazide] | > 100 µM
CC(NC(=O)COC(=O)c1ccc([N+](=O)[O-])s1)c1ccccc1 (stereo not drawn) [[2-oxo-2-(1-phenylethylamino)ethyl] 5-nitrothiophene-2-carboxylate] | > 100 µM

Other lines, results leading:

IC50 | SMILES
> 100 µM | CN(C)c1ccc(NC(=O)c2ccc(Cn3cc([N+](=O)[O-])cn3)cc2)cc1 [MLS000727576]
> 100 µM | COc1ccc(NC(=O)NNc2cc(N3CCOCC3)nc(N3CCOCC3)n2)cc1 [MLS000765810]
> 100 µM | N#CC1(CCCN2CCCCC2)c2ccccc2CCc2ccccc21 [MLS001178552]
> 100 µM | O=C(COC(=O)c1ccc([N+](=O)[O-])s1)NCCc1ccccc1 [MLS002159124]
50.7 µM | CN(C)c1cc(N=NCc2ccccc2)nc(N(C)C)n1 [N2,N2,N4,N4-tetramethyl-N6-[(phenylmethylidene)amino]pyrimidine-2,4,6-triamine]
> 100 µM | COc1ccc(-c2csc(CCn3[nH]c(C)cc3=O)n2)cc1 [SMR000347900]
